Data on four molecules can be found in publication PMC3365043, “Receptor-Targeting Phthalocyanine Photosensitizer for Improving Antitumor Photocytotoxicity” (PLoS ONE, 2012).

Like-named read-outs stand apart in the source and are kept apart here.

For data set [1] the following is noted: in DMSO, cited from earlier work. An excerpt:
Table 1 Photophysical parameters of ZnPc-GnRH conjugate in DMSO compared to that of ZnPc in DMSO. | column: τs (ns)

Another data set concerns S180 tumor-bearing mice. The settings on record: cited from earlier work. An excerpt:
We previously described a peptide-conjugated photosensitizer (ZnPc-(Lys)5), zinc phthalocyanine (ZnPc) conjugated with pentalysine peptidyl moiety, and reported its in vitro and in vivo efficacy. The pentalysine peptide renders water solubility of ZnPc that is otherwise not soluble in physiological condition and requires specialized formulation with, e.g., Cremophor EL. […] Herein we report the synthesis and the physicochemical characterization of this ZnPc-GnRH conjugate, along with the evaluation of its photodynamic activity at cellular level. […] This work p ...

For data set [2] the following is noted: in DMSO; ref 20; cited from earlier work. The source says:
Table 1 Photophysical parameters of ZnPc-GnRH conjugate in DMSO compared to that of ZnPc in DMSO. | column: Фf

The test system of data set [3] is MDA-MB-231. As to the kind of experiment: Phototoxicity and dark toxicity, AlamarBlue cell viability. The note with it: read-out: Phototoxicity IC50 (50% growth inhibition), 12 hr incubation, 670 nm laser, 1.5 J cm−2, viability after 24 hr. (Resazurin is reduced to fluorescent resorufin, in cell work by metabolically active cells.)
Method: (§1) The cell lines we used in the current study were human breast cancer cell lines (MDA-MB-231 and MCF-7), human hepatoblastoma cell line (HepG2) and human embryo lung fibroblasts (HELF). All these cell lines were purchased from American Type Culture Collection (ATCC, Manassas, VA, USA).
(§2) MDA-MB-231 and MCF-7 cells were maintained routinely in Dulbecco’s modified Eagle’s medium (DMEM) supplemented with 10% fetal calf serum (FCS) and antibiotics. HepG2 and HELF cells were grown in RPMI-1640 supplemented with 10% FCS and antibiotics. All cells were kept at 37°C in a humidified incubator with 5% CO2 atmosphere. The viability of cells was determined by Trypan blue dye exclusion. Cells were maintained in logarithmic phase with viability >95%.
(§3) Cells at a density of 2.5×10^5 per ml in a volume of 200 µl per well were placed in 96-multiwell black opaque plates and incubated overnight at 37°C under 5% CO2. […] The plates were illuminated at a light dosage of 1.5 J cm^−2 using a 670 nm SAS-DL3 medical laser (Beijing Shou’anshan Electronic Technology Co. Ltd. Beijing, China) and then returned to incubator; dark toxicity was measured in parallel. After 24 hr incubation, cell viability was measured on a microplate reader (Synergy 4, BioTek Instruments) using the AlamarBlue® fluorometric cell viability assay (BioSource International Inc., Camarillo, CA, USA) with λex 530 nm and λem 585 nm. […]
Data set [4] in a line: Singlet oxygen quantum yield determination (DPBF decay). It is filed as physicochemical. The settings on record: in DMSO; 0.5 µM; DPBF decay at 417 nm; 670 nm laser at 80 mW cm−2; ZnPc reference (0.67); error less than 10%. On the procedure: The PDT effect of ZnPc type photosensitizer is usually mediated by type II mechanism involving singlet oxygen (^1O2) as major cytotoxic agent. The quantum yield of ^1O2 generation by ZnPc-GnRH was determined by comparing with the un-substituted zinc phthalocyanine (ZnPc) as reference, which has a quantum yield of 0.67 in DMSO [21]. Briefly, a 2 ml DMSO solution of the mixture of the ZnPc-GnRH conjugate (0.5 µM) and 1,3-diphenylisobenzofuran (DPBF, a scavenger molecule for ^1O2), was introduced to the spectrophotometric cell of 1 cm path length and illuminated with a laser light (670 nm at 80 mW cm^−2) in the presence of air (without degassing). The DPBF decay at 417 nm was monitored every 5 s. The concentration of DPBF was kept lower than 3×10^−5 M during the experiment to avoid chain reactions induced by DPBF in the presence of ^1O2. The quantum yield measurement has an error of less than 10%.

Data set [5] concerns MCF-7.
Method: as §1, §2, §3
A short description of data set [6]: Fluorescence quantum yield, comparative method with ZnPc as standard. The format is physicochemical. The settings on record: in DMSO, ZnPc standard (Фf 0.2). On the procedure: Fluorescence quantum yield (Фf) of ZnPc-GnRH conjugate was measured by a comparative method using ZnPc as a standard (Фf (ZnPc) in DMSO = 0.2) using the Eq. (1) [drawing 1] (1) where Фf and Ф0 are fluorescence quantum yields of the conjugate and standard, respectively. Au and A0 are absorbances of the conjugate and standard, respectively. Fu and F0 are areas under the emission curves of the conjugate and standard, respectively. nu and n0 are refractive indices of the solvents used for the conjugate and standard, respectively. The fluorescence of the conjugate and standard were measured on a Cary Eclipse Fluorescence spectrophotometer (Varian, Inc., Walnut Creek, CA).

Data set [7] has as its system MCF-7. The data set can be described thus: Phototoxicity and dark toxicity, AlamarBlue cell viability. The settings on record: read-out: Phototoxicity IC50 (50% growth inhibition), 12 hr incubation, 670 nm laser, 1.5 J cm−2, viability after 24 hr.
Method: as §1, §2, §3
For data set [8], the system named is MDA-MB-231.
Method: as §1, §2, §3
The subject of data set [9] is HELF.
Method: as §1, §2, §3
Data set [10] can be described thus: Fluorescence decay time by time-correlated single photon counting. It is filed as physicochemical. The settings on record: in DMSO, 300 K, fitted decay curve. As for the experimental part: Fluorescence decay time (τs) of ZnPc-GnRH conjugate was measured by time-correlated single photon counting experiment of fluorescence excited with a 1.2 ns pulse laser diode at 460 nm, performed on an Edinburgh Instruments FLS920 spectrofluorometer (Livingston, UK) at 300 K. Fluorescence lifetimes were estimated by fitting the decay data using an interactive deconvolution procedure based on Marquardt algorithm with software supplied by OriginLab.

For data set [11], the system named is HepG2.
Method: as §1, §2, §3
For data set [12], the system named is MDA-MB-231. The data set can be described thus: Cellular uptake (fluorescence of cell lysate). The settings on record: 10^−7 to 10^−4.5 M, 12 hr, 37°C, 1% DMSO (ZnPc-GnRH) or 0.2% Cremophor EL (ZnPc-COOH), mean of four experiments.
Method: (§4) Aliquots of cells (2.5×10^5 per ml growth medium) were placed in 96-multiwell black opaque plates (Costa) and incubated overnight at 37°C under 5% CO2. Various concentrations (10^−7, 10^−6.5, 10^−6, 10^−5.5, 10^−5 and 10^−4.5 M) of ZnPc-GnRH conjugate (in 1% DMSO) or ZnPc-COOH (in an additional 0.2% Cremophor EL) were added and incubated with cells at 37°C. After 12 hr incubation, the exponentially growing cells were washed with sterile PBS before lysis with NaOH (0.1 N, 0.2 ml with 1% SDS) to give a homogenous solution. The fluorescence of the cell extract was measured on a microplate reader (Synergy 4, BioTek Instruments) with λex = 610 nm and λem = 690 nm. The concentration of cellular protein was determined with a BCA Protein Assay Kit (BioTeke Corporation, Beijing, China). Standard curves were made with cell lysates treated as above with known added amounts of bovine serum albumin. Results are expressed as nmol photosensitizer per mg cell protein.
The test system of data set [13] is MCF-7. The data set can be described thus: Cellular uptake (fluorescence of cell lysate). The note with it: 10^−7 to 10^−4.5 M, 12 hr, 37°C, 1% DMSO (ZnPc-GnRH) or 0.2% Cremophor EL (ZnPc-COOH), lysate fluorescence λex 610/λem 690 nm, mean of four experiments.
Method: as §4
In data set [14] the test system is HELF. The data set can be described thus: Cellular uptake (fluorescence of cell lysate). It is filed as cell-based, human. The note with it: 10^−7 to 10^−4.5 M, 12 hr, 37°C, 0.2% Cremophor EL (ZnPc-COOH), mean of four experiments.
Method: as §4
The subject of data set [15] is HepG2. The data set can be described thus: Cellular uptake (fluorescence of cell lysate). It is filed as cell-based, human. The note with it: 10^−7 to 10^−4.5 M, 12 hr, 37°C, 0.2% Cremophor EL (ZnPc-COOH), mean of four experiments.
Method: as §4

Method for MCF-7 cells: 200 µl of MCF-7 cells (at a density of 2.5×10^5 per ml) were seeded in each well of 96-multiwell black opaque plates and incubated overnight at 37°C under 5% CO2. After treated with or without Cetrorelix (at a concentration of 7.5×10^−7 M), a GnRH antagonist, for 12 hr at 37°C, MCF-7 cells were washed twice with sterile PBS before fresh medium was added. These exponentially growing MCF-7 cells were then allowed to incubate with ZnPc-GnRH conjugate (at a concentration of 5×10^−6 M) for various time periods (5, 10, 20, 40, 80, 120 and 180 min) before the cellular uptakes were measured at different incubation time points as described above to determine the cellular uptake curves.

Take `[Zn+2].c1ccc2c(c1)-c1nc-2nc2[n-]c(nc3nc([n-]c4nc(n1)-c1ccccc1-4)-c1ccccc1-3)c1ccccc21` [ZnPc, Zinc phthalocyanine]: the “Fluorescence decay time (τs)” value in [1] (ref 23) was 1.22 ns; in data set [1] (ref 24), 3.6 ns. For the same molecule, the “Distribution in murine brain” value in the data set with S180 tumor-bearing mice (murine brain) is recorded as “very low level of distribution”. For the same molecule, the “Fluorescence quantum yield (Фf)” value in data set [2] was 0.20 [20].
`CC(C)C[C@H](NC(=O)CNC(=O)[C@H](Cc1ccc(O)cc1)NC(=O)[C@H](CO)NC(=O)[C@H](Cc1c[nH]c2ccccc12)NC(=O)[C@H](Cc1c[nH]cn1)NC(=O)[C@H](CCC(=O)O)NC(=O)c1ccc2c3nc4nc(nc5[nH]c(nc6nc(nc([nH]3)c2c1)-c1ccccc1-6)c1ccccc51)-c1ccccc1-4)C(=O)N[C@@H](CCCNC(=N)N)C(=O)N1CCC[C@H]1C(=O)NCC(=O)O` [ZnPc-GnRH]: the IC50 turned out to be 1320 nM in the data set with MDA-MB-231 [3] and 1820 nM in the data set on MCF-7 [7]. Moreover, in [4], the “Singlet oxygen quantum yield (ФΔ)” value worked out at 0.73. The Dark toxicity entry in the data set with MCF-7 [5], with MDA-MB-231 [8], in the data set with HELF [9] and in the data set on HepG2 [11] was “no obvious cellular dark toxicity” each time. The “Fluorescence quantum yield (Фf)” value in [6] turned out to be 0.17. In the data set with MCF-7 cells, the “Time at which cellular uptake reached the maximal level” value was about 2 h. The Phototoxicity entry with HELF [9] (HELF, 10^−7 to 10^−4.5 M, 12 hr incubation, 670 nm, 1.5 J cm−2) was “no significant phototoxicity”; with HepG2 [11] (HepG2, 10^−7 to 10^−4.5 M, 12 hr incubation, 670 nm, 1.5 J cm−2) it was “no significant phototoxicity”. Moreover, the “Fluorescence decay time (τs)” value in data set [10] is 2.7 ns.
Take “Mono-substituted β-carboxyphthalocyanine zinc [ZnPc-COOH]”: the Cellular uptake result with MDA-MB-231 [12], with MCF-7 [13], in the data set on HELF [14] and in the data set with HepG2 [15] was “low levels of cellular uptakes” throughout.
In the case of “pentalysine phthalocyanine zinc [ZnPc-(Lys)5]”, in the data set with S180 tumor-bearing mice (S180 tumor-bearing mice), the “Selectivity for tumor over brain tissue” value is listed as 6 fold and the “Selectivity for tumor over muscle tissue” value is listed as 2 fold.

By IC50 is commonly meant the concentration at which inhibition is half-maximal.
